The values that follow come from patent publication US8232273B2, “Heterocyclic compounds and methods of use” (Genentech, Inc., priority 2008, dated 2012).

Each structure is given as a SMILES string. Where two headings read alike, the source gives them in different places.

The target in experiment [1] is T1, Bcl-xL (GST-Bcl-xL) (Homo sapiens, UniProt Q07817). Briefly: TR-FRET binding assay, competition with F-Bak for the Bcl-xL binding site. On the technique in general: In TR-FRET formats the signal depends on donor and acceptor labels being close together.
T1 sequence (Q07817 whole entry, species assumed): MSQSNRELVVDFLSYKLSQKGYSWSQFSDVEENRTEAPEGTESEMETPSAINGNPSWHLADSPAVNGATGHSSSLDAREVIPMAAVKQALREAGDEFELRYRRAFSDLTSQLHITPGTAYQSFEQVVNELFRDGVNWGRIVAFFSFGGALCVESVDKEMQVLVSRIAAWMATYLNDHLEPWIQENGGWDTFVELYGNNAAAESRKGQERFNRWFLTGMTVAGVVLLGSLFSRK
Experiment [2] has as its target T1, Bcl-xL (GST-Bcl-xL). Briefly: AlphaScreen Bcl-xL binding assay, competition with biotinylated Bim peptide. More on the design: made in house. Conditions: values listed in the order of Table 1; read-out: Alphascreen results (IC50) against the Bcl-xL protein. The essentials:
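Acceptor beads with GST-Bcl-xL were combined with donor beads carrying biotinylated Bim peptide after each bead mix was preincubated 30 min at room temperature. Compounds in DMSO, 2-fold serially diluted, were incubated 30 min at room temperature before donor addition, with duplicate plates. Percent inhibition was taken against no-protein and DMSO controls, and IC50 was calculated.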
(Bead proximity is the source of the signal in Alpha formats.)

The mark [3] stands for this setting: values listed in the order of Table 1, read-out: TR-FRET assay results (Ki), Bcl-xL.

Consider `O=C(Nc1nc2ccccc2s1)c1cccc2c1CN(c1nc(C(=O)O)c(CCCOc3ccc(-n4cccn4)cc3)s1)CC2` [Example 48, 5-(3-(4-(1H-pyrazol-1-yl)phenoxy)propyl)-2-(8-(benzo[d]thiazol-2-ylcarbamoyl)-3,4-dihydroisoquinolin-2(1H)-yl)thiazole-4-carboxylic acid], for which, at Bcl-xL (GST-Bcl-xL) [1] (setting [3]), the Ki (as a rule, the equilibrium dissociation constant of an inhibitor or competing ligand from its target) is 0.05 nM. Besides, the IC50 – broadly, the concentration that gives 50% inhibition – at Bcl-xL (GST-Bcl-xL) [2] is 0.3 nM.
In the same order, the values of `O=C(Nc1nc2ccccc2s1)c1cccc2c1CN(c1nc(C(=O)O)c(CCOc3ccc(-n4ncc5cncnc54)cc3)s1)CC2` [Example 49, 5-(2-(4-(1H-pyrazolo[3,4-d]pyrimidin-1-yl)phenoxy)ethyl)-2-(8-(benzo[d]thiazol-2-ylcarbamoyl)-3,4-dihydroisoquinolin-2(1H)-yl)thiazole-4-carboxylic acid] are 12 nM and 80 nM.
In the same order, the values of `O=C(Nc1nc2ccccc2s1)c1cccc2c1CN(c1nc(C(=O)O)c(CCOc3cccc(-n4ncc5cncnc54)c3)s1)CC2` [Example 50, 5-(2-(3-(1H-pyrazolo[3,4-d]pyrimidin-1-yl)phenoxy)ethyl)-2-(8-(benzo[d]thiazol-2-ylcarbamoyl)-3,4-dihydroisoquinolin-2(1H)-yl)thiazole-4-carboxylic acid] are 2 nM and 10 nM.
Taken in the same sequence, the figures for `N#Cc1cscc1-c1ccc(OCCCc2sc(N3CCc4cccc(C(=O)Nc5nc6ccccc6s5)c4C3)nc2C(=O)O)cc1` [Example 51, 2-[8-(Benzothiazol-2-ylcarbamoyl)-3,4-dihydro-1H-isoquinolin-2-yl]-5-{3-[4-(4-cyano-thiophen-3-yl)-phenoxy]-propyl}-thiazole-4-carboxylic acid] were 0.3 nM and 6 nM.
On to `O=C(Nc1nc2ccccc2s1)c1cccc2c1CN(c1nc(C(=O)O)c(CN3CCN(c4ccccc4)CC3)s1)CC2` [Example 62, 2-(8-(benzo[d]thiazol-2-ylcarbamoyl)-3,4-dihydroisoquinolin-2(1H)-yl)-5-((4-phenylpiperazin-1-yl)methyl)thiazole-4-carboxylic acid], for which the Ki at Bcl-xL (GST-Bcl-xL) [1] (setting [3]) stood at 130 nM. In addition, the 50% inhibitory concentration (IC50) at Bcl-xL (GST-Bcl-xL) [2] is 1600 nM.
In the case of `O=C(Nc1nc2ccccc2s1)c1cccc2c1CN(c1nc(C(=O)O)c(CN3CCC(c4ccccc4)CC3)s1)CC2` [Example 63, 2-(8-(benzo[d]thiazol-2-ylcarbamoyl)-3,4-dihydroisoquinolin-2(1H)-yl)-5-((4-phenylpiperidin-1-yl)methyl)thiazole-4-carboxylic acid], the Ki on Bcl-xL (GST-Bcl-xL) [1] (setting [3]) stood at 248 nM. For the same molecule, on Bcl-xL (GST-Bcl-xL) [2], the IC50 came out at 574 nM.
In the same order, the values of `O=C(Nc1nc2ccccc2s1)c1cccc2c1CN(c1nc(C(=O)O)c(CN3CCC3c3ccccc3)s1)CC2` (stereo not drawn) [Example 71, 2-[8-(Benzothiazol-2-ylcarbamoyl)-3,4-dihydro-1H-isoquinolin-2-yl]-5-(2-phenyl-azetidin-1-ylmethyl)-thiazole-4-carboxylic acid] are 174 nM and 570 nM.
Turning to `Nc1nc2ccccc2n1-c1ccc(OCCCc2sc(N3CCc4cccc(C(=O)Nc5nc6ccccc6s5)c4C3)nc2C(=O)O)cc1` [Example 77, 5-(3-(4-(2-amino-1H-benzo[d]imidazol-1-yl)phenoxy)propyl)-2-(8-(benzo[d]thiazol-2-ylcarbamoyl)-3,4-dihydroisoquinolin-2(1H)-yl)thiazole-4-carboxylic acid], the Ki at Bcl-xL (GST-Bcl-xL) [1] (setting [3]) came out at 7 nM. The IC50 on Bcl-xL (GST-Bcl-xL) [2] came out at 34 nM.
Consider `CN1CCN(C(=O)c2ccc(OCCCc3ccc(N4CCc5cccc(C(=O)Nc6nc7ccccc7s6)c5C4)nc3C(=O)O)cc2)CC1` [Example 98, 6-(8-(benzo[d]thiazol-2-ylcarbamoyl)-3,4-dihydroisoquinolin-2(1H)-yl)-3-(3-(4-(4-methylpiperazine-1-carbonyl)phenoxy)propyl)picolinic acid], for which the Ki on Bcl-xL (GST-Bcl-xL) [1] (setting [3]) is 10 nM. For the same molecule, on Bcl-xL (GST-Bcl-xL) [2], the IC50 was found to be 140 nM.
As for `CN(C)CCc1ccc(OCCCc2ccc(N3CCc4cccc(C(=O)Nc5nc6ccccc6s5)c4C3)nc2C(=O)O)cc1` [Example 102, 6-(8-(benzo[d]thiazol-2-ylcarbamoyl)-3,4-dihydroisoquinolin-2(1H)-yl)-3-(3-(4-(2-(dimethylamino)ethyl)phenoxy)propyl)picolinic acid], the Ki on Bcl-xL (GST-Bcl-xL) [1] (setting [3]) was 2 nM. Also, on Bcl-xL (GST-Bcl-xL) [2], the IC50 turned out to be 20 nM.
At Bcl-xL (GST-Bcl-xL) [1] (with 1% human serum (HS)), `CN(C)CCCc1ccc(OCCCc2sc(N3CCc4cccc(C(=O)Nc5nc6ccccc6s5)c4C3)nc2C(=O)O)c(F)c1` [Example 103, 2-(8-(benzo[d]thiazol-2-ylcarbamoyl)-3,4-dihydroisoquinolin-2(1H)-yl)-5-(3-(4-(3-(dimethylamino)propyl)-2-fluorophenoxy)propyl)thiazole-4-carboxylic acid] had a Ki of 0.006 nM. Moreover, the IC50 at Bcl-xL (GST-Bcl-xL) [2] was found to be 0.4 nM.
With `CN1CCC(Nc2ccc(OCCCc3ccc(N4CCc5cccc(C(=O)Nc6nc7ccccc7s6)c5C4)nc3C(=O)O)cc2)CC1` [Example 104, 6-(8-(Benzo[d]thiazol-2-ylcarbamoyl)-3,4-dihydroisoquinolin-2(1H)-yl)-3-(3-(4-(1-methylpiperidin-4-ylamino)phenoxy)propyl)picolinic acid], the Ki on Bcl-xL (GST-Bcl-xL) [1] (setting [3]) worked out at 1 nM. The IC50 on Bcl-xL (GST-Bcl-xL) [2] came out at 9.6 nM.
As to `CN1CCN(c2cccc(OCCCc3ccc(N4CCc5cccc(C(=O)Nc6nc7ccccc7s6)c5C4)nc3C(=O)O)c2)CC1` [Example 105, 6-(8-(benzo[d]thiazol-2-ylcarbamoyl)-3,4-dihydroisoquinolin-2(1H)-yl)-3-(3-(3-(4-methylpiperazin-1-yl)phenoxy)propyl)picolinic acid], the Ki at Bcl-xL (GST-Bcl-xL) [1] (setting [3]) came to 0.3 nM. The IC50 on Bcl-xL (GST-Bcl-xL) [2] was 2.2 nM.
In the same order, the values of `CN1CCN(c2cc(F)c(OCCCc3sc(N4CCc5cccc(C(=O)Nc6nc7ccccc7s6)c5C4)nc3C(=O)O)cc2F)CC1` [Example 108, 2-(8-(benzo[d]thiazol-2-ylcarbamoyl)-3,4-dihydroisoquinolin-2(1H)-yl)-5-(3-(2,5-difluoro-4-(4-methylpiperazin-1-yl)phenoxy)propyl)thiazole-4-carboxylic acid] are 0.02 nM and 0.4 nM.
With `O=C(Nc1nc2ccccc2s1)c1cccc2c1CN(c1ccc(CCCOc3ccnc(Cl)c3)c(C(=O)O)n1)CC2` [Example 109], at Bcl-xL (GST-Bcl-xL) [1] (setting [3]), the Ki is 0.6 nM. Besides, the half-maximal inhibitory concentration (IC50) at Bcl-xL (GST-Bcl-xL) [2] was 10.6 nM.
In the same order, the values of `CN(C)CCOc1cnc(-c2ccc(OCCCc3ccc(N4CCc5cccc(C(=O)Nc6nc7ccccc7s6)c5C4)nc3C(=O)O)cc2)nc1` [Example 112, 6-(8-(benzo[d]thiazol-2-ylcarbamoyl)-3,4-dihydroisoquinolin-2(1H)-yl)-3-(3-(4-(5-(2-(dimethylamino)ethoxy)pyrimidin-2-yl)phenoxy)propyl)picolinic acid] are 0.2 nM and 0.45 nM.
In the same order, the values of `CN(C)CCOc1cccc(OCCCc2ccc(N3CCc4cccc(C(=O)Nc5nc6ccccc6s5)c4C3)nc2C(=O)O)c1` [Example 113, 6-(8-(benzo[d]thiazol-2-ylcarbamoyl)-3,4-dihydroisoquinolin-2(1H)-yl)-3-(3-(3-(2-(dimethylamino)ethoxy)phenoxy)propyl)picolinic acid] are 0.2 nM and 0.9 nM.
Take `O=C(Nc1nc2ccccc2s1)c1cccc2c1CN(c1nc(C(=O)O)c(CCCOc3ccc(OCCN4CCCC4)cc3)s1)CC2` [Example 114, 2-(8-(benzo[d]thiazol-2-ylcarbamoyl)-3,4-dihydroisoquinolin-2(1H)-yl)-5-(3-(4-(2-(pyrrolidin-1-yl)ethoxy)phenoxy)propyl)thiazole-4-carboxylic acid]: the Ki at Bcl-xL (GST-Bcl-xL) [1] (setting [3]) came out at 0.04 nM. Further, on Bcl-xL (GST-Bcl-xL) [2], the IC50 worked out at 0.14 nM.
In the same order, the values of `CN(C)CC#Cc1ccc(OCCCc2sc(N3CCc4cccc(C(=O)Nc5nc6ccccc6s5)c4C3)nc2C(=O)O)c(F)c1` [Example 116, 2-(8-(benzo[d]thiazol-2-ylcarbamoyl)-3,4-dihydroisoquinolin-2(1H)-yl)-5-(3-(4-(3-(dimethylamino)prop-1-ynyl)-2-fluorophenoxy)propyl)thiazole-4-carboxylic acid] are 0.004 nM and 0.2 nM.
Taken in the same sequence, the figures for `CN(C)CC#Cc1ccc(OCCCc2sc(N3CCc4cccc(C(=O)Nc5nc6ccccc6s5)c4C3)nc2C(=O)O)cc1F` [Example 117, 2-(8-(benzo[d]thiazol-2-ylcarbamoyl)-3,4-dihydroisoquinolin-2(1H)-yl)-5-(3-(4-(3-(dimethylamino)prop-1-ynyl)-3-fluorophenoxy)propyl)thiazole-4-carboxylic acid] were 3 nM and 17 nM.
In the same order, the values of `CN(C)CC#Cc1cc(F)c(OCCCc2sc(N3CCc4cccc(C(=O)Nc5nc6ccccc6s5)c4C3)nc2C(=O)O)cc1F` [Example 118, 2-(8-(benzo[d]thiazol-2-ylcarbamoyl)-3,4-dihydroisoquinolin-2(1H)-yl)-5-(3-(4-(3-(dimethylamino)prop-1-ynyl)-2,5-difluorophenoxy)propyl)thiazole-4-carboxylic acid] are 0.01 nM and 0.3 nM.
